Molecular target: T1, isoleucyl-tRNA synthetase (IleRS) (Escherichia coli, UniProt P00956)
T1 construct: gene ileS; full-length native enzyme purified from E. coli B; one-subunit enzyme
Experiment: global best fit of steady-state ATP-PPi exchange and tRNA aminoacylation rates
Type: biochemical
Conditions: AMP·E (segment 1), competitive with MgATP; pH 7.4, 30 °C, Mg-acetate, 50 mM K-acetate, no chloride; unreliable: fitted range open above (360 <)
From the text: global best fit of steady-state ATP-PPi exchange and tRNA aminoacylation rates on isoleucyl-tRNA synthetase (IleRS)

T1 sequence (P00956 2-938): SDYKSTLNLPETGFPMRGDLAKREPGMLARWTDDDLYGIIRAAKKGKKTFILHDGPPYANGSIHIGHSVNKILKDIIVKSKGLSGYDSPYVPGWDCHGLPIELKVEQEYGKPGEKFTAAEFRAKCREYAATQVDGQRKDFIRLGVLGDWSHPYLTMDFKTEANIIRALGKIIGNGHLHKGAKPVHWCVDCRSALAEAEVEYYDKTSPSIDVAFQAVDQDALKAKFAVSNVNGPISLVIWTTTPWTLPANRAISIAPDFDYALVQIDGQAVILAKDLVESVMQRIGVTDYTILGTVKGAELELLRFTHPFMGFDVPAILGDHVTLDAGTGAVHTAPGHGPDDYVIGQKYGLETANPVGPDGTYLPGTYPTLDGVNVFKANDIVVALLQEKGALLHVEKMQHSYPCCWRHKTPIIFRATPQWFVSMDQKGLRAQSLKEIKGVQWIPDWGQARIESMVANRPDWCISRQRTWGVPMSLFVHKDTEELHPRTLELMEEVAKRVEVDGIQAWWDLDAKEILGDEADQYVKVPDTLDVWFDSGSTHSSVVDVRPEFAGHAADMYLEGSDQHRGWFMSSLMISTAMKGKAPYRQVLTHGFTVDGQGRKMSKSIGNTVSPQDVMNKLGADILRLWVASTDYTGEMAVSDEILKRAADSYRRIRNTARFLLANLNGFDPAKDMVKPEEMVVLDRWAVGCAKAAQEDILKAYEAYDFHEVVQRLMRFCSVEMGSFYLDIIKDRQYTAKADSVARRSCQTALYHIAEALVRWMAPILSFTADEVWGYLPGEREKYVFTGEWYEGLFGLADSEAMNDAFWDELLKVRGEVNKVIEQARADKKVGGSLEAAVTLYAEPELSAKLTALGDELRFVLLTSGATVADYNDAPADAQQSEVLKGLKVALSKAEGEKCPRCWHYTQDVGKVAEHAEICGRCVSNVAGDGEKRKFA

How did the Value turn out when `Nc1ncnc2c1ncn2[C@@H]1O[C@H](COP(=O)(O)O)[C@@H](O)[C@H]1O` [AMP] was run?
The Value was 705 µM.

Reference: PMC5794461, “Kinetic analysis of the isoleucyl‐tRNA synthetase mechanism: the next reaction cycle can start before the previous one ends” (FEBS Open Bio, 2017)
